pKi: −log10 of the molar value.

The subject of assay [1] is TGF-β-stimulated SMAD3 phosphorylation in BEAS-2B cells. The assay can be described thus: Cellular ALK5 potency assay, inhibition of TGF-β stimulated pSMAD3 formation in BEAS-2B cells. The format is cell-based. The note with it: Homo sapiens, inhibition of TGF-β (10 ng/mL) stimulated pSMAD3 formation, 1 hour compound incubation, read-out: BEAS2B pIC50 (converted). In outline:
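Phospho-SMAD3 was quantified by AlphaLISA in lysates of human lung epithelial BEAS-2B cells. Compound was added 1 h (37 °C, HEPES/BSA-supplemented HBSS) before a 30 min challenge with 10 ng/mL TGF-β. Values are pIC50 relative to stimulated cells without compound.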

Assay [2] has as its target T1, recombinant human ALK5 (TGF-βR1) protein (Homo sapiens, UniProt P36897).
T1 construct: purchased Life Technologies PR9075A
T1 sequence (P36897 34-503): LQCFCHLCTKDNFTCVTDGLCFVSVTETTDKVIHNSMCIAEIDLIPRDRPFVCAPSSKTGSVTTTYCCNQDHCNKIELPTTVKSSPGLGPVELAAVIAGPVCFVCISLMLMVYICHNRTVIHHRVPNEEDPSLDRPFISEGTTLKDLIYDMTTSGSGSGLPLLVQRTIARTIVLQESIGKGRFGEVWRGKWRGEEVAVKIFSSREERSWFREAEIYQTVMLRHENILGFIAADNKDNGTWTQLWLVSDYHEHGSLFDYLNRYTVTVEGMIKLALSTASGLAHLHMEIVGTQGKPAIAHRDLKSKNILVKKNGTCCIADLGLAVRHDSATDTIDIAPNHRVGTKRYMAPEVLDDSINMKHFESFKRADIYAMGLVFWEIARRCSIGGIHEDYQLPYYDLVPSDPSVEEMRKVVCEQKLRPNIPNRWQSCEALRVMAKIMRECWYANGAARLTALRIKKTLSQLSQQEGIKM
The assay can be described thus: Biochemical ALK5 (TGF-βR1) assay to measure pKi (LANCE Ultra ULight kinase assay). The conditions noted are these: apparent pKi, converted from pIC50 using the Cheng-Prusoff equation. In a few lines: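 TR-FRET kinase format: compound dose range 10 μM–25 pM equilibrated 60 min with human ALK5 and ULight-labelled topoisomerase 2α peptide in HEPES/MgCl2 buffer pH 7.5 with DTT. Reaction started with ATP (125 μM stock, 5× final), 60 min at 37° C, stopped with EDTA/Eu-anti-phospho antibody; pKi derived from pIC50 via Cheng-Prusoff.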
(TR-FRET usually uses a lanthanide donor and a delayed reading to cut background.)

Turning to `NC1CCN(c2cnc3ccc(-c4c[nH]nc4-c4ccccc4F)nc3c2)C1` (centres unmarked) [Compound 11-2, 1-(6-(3-(2-fluorophenyl)-1H-pyrazol-4-yl)-1,5-naphthyridin-3-yl)pyrrolidin-3-amine], in assay [1], the IC50 was 25.1 to 158 nM. Moreover, in assay [2], the negative logarithm of the Ki (pKi) was 8.50 to 9.40.
The like results for `Fc1ccc(-c2n[nH]cc2-c2ccc3ncc(N4CCC(N5CCCC5)CC4)cc3n2)cc1F` [Compound 8-11, 2-[3-(3,4-difluorophenyl)-1H-pyrazol-4-yl]-7-(4-pyrrolidin-1-yl-1-piperidyl)-1,5-naphthyridine] were, in that order, 25.1 to 158 nM and 8.50 to 9.40.
On to `Fc1ccc(Cl)cc1-c1n[nH]cc1-c1ccc2ncc(-c3cn(Cc4c[nH]cn4)nn3)cc2n1` [Compound 1-111, 2-[3-(5-chloro-2-fluoro-phenyl)-1H-pyrazol-4-yl]-7-[1-(1H-imidazol-4-ylmethyl)triazol-4-yl]-1,5-naphthyridine], for which the IC50 in assay [1] was 25.1 to 158 nM. Also, in assay [2], the pKi is at least 10.50.
Regarding `CN1CCC(N(C)c2cnc3ccc(-c4c[nH]nc4-c4cc(Cl)ccc4F)nc3c2)C1` (racemic) [Compound 1-79, 6-[3-(5-chloro-2-fluoro-phenyl)-1H-pyrazol-4-yl]-N-methyl-N-[rac-(3R)-1-methylpyrrolidin-3-yl]-1,5-naphthyridin-3-amine], the IC50 in assay [1] was at most 20 nM. In addition, the negative-log Ki (pKi) in assay [2] was 9.50 to 10.40.
`O=C(O)CC1CN(c2cnc3ccc(-c4nc[nH]c4-c4cccc(Cl)c4)nc3c2)CCN1` (centres unmarked) [Compound 29-4, 2-(4-(6-(5-(3-chlorophenyl)-1H-imidazol-4-yl)-1,5-naphthyridin-3-yl)piperazin-2-yl)acetic acid]: the IC50 in assay [1] is 1580 to 10000 nM. In addition, the negative logarithm of the Ki (pKi) in assay [2] is 8.50 to 9.40.
On to `NCCn1cc(-c2cnc3ccc(-c4nc[nH]c4-c4cc(Cl)ccc4F)nc3c2)cn1` [Compound 2-20, 2-[4-[6-[5-(5-chloro-2-fluoro-phenyl)-1H-imidazol-4-yl]-1,5-naphthyridin-3-yl]pyrazol-1-yl]ethanamine], for which, in assay [1], the IC50 is 25.1 to 158 nM. For the same compound, the pKi in assay [2] was 9.50 to 10.40.
In the case of `CN1CCN(CCNc2cnc3ccc(-c4c[nH]nc4-c4cc(Cl)c(F)cc4F)nc3c2)CC1` [Compound 6-2, 6-[3-(5-chloro-2,4-difluoro-phenyl)-1H-pyrazol-4-yl]-N-[2-(4-methylpiperazin-1-yl)ethyl]-1,5-naphthyridin-3-amine], in assay [1], the IC50 is at most 20 nM. Further, the negative logarithm of the Ki (pKi) in assay [2] was 9.50 to 10.40.
Turning to `CN1CCN(C2CCN(c3cnc4ccc(-c5c[nH]nc5-c5ccccc5F)nc4c3)CC2)CC1` [Compound 11-1, 2-(3-(2-fluorophenyl)-1H-pyrazol-4-yl)-7-(4-(4-methylpiperazin-1-yl)piperidin-1-yl)-1,5-naphthyridine], in assay [1], the IC50 was 25.1 to 158 nM. Also, in assay [2], the pKi is 8.50 to 9.40.
On to `CNCCn1cc(-c2cnc3ccc(-c4nc[nH]c4-c4ccc(F)c(F)c4)cc3c2)cn1` [Compound 23-2, 2-[4-[6-[5-(3,4-difluorophenyl)-1H-imidazol-4-yl]-3-quinolyl]pyrazol-1-yl]-N-methyl-ethanamine], for which, in assay [1], the IC50 was 25.1 to 158 nM. Further, the pKi in assay [2] is 9.50 to 10.40.
For `CNCCn1cc(-c2cnc3ccc(-c4c(-c5ccc(F)c(F)c5)[nH]c5cccnc45)nc3c2)cn1` [Compound 27-1, 2-[4-[6-[2-(3,4-difluorophenyl)-1H-pyrrolo[3,2-b]pyridin-3-yl]-1,5-naphthyridin-3-yl]pyrazol-1-yl]-N-methyl-ethanamine], the IC50 in assay [1] was 25.1 to 158 nM. In assay [2], the negative-log Ki (pKi) was 7.50 to 8.40.
Take `CNC(=O)[C@@H]1CN(c2cnc3ccc(-c4c[nH]nc4-c4cc(Cl)c(F)cc4F)nc3c2)CCN1` [Compound 6-26, (2S)-4-[6-[3-(5-chloro-2,4-difluoro-phenyl)-1H-pyrazol-4-yl]-1,5-naphthyridin-3-yl]-N-methyl-piperazine-2-carboxamide]: in assay [1], the IC50 is 25.1 to 158 nM. Also, in assay [2], the negative logarithm of the Ki (pKi) was 8.50 to 9.40.
The like results for `Fc1ccc(Cl)cc1-c1nc2ccccn2c1-c1ccc2ncc(-c3cn[nH]c3)cc2n1` [Compound 3-10, 2-[2-(5-chloro-2-fluoro-phenyl)imidazo[1,2-a]pyridin-3-yl]-7-(1H-pyrazol-4-yl)-1,5-naphthyridine] were, in that order, 1580 to 10000 nM and 8.50 to 9.40.
For `NCCn1cc(-c2cnc3ccc(-c4c[nH]nc4-c4cc(Cl)ccc4F)nc3c2)cn1` [Compound 1-89, 2-[4-[6-[3-(5-chloro-2-fluoro-phenyl)-1H-pyrazol-4-yl]-1,5-naphthyridin-3-yl]pyrazol-1-yl]ethanamine], the IC50 in assay [1] is 25.1 to 158 nM. In addition, the pKi in assay [2] is at least 10.50.
On to `CNC1CN(c2cnc3ccc(-c4c[nH]nc4-c4cc(Cl)c(F)cc4F)nc3c2)C1` [Compound 6-31, 1-[6-[3-(5-chloro-2,4-difluoro-phenyl)-1H-pyrazol-4-yl]-1,5-naphthyridin-3-yl]-N-methyl-azetidin-3-amine], for which the IC50 in assay [1] was at most 20 nM. Besides, the pKi in assay [2] is 9.50 to 10.40.
Take `Fc1cc(F)c(-c2n[nH]cc2-c2ccc3ncc(-c4cnn(CC5CNC5)c4)cc3n2)cc1Cl` [Compound 6-42, 7-[1-(azetidin-3-ylmethyl)pyrazol-4-yl]-2-[3-(5-chloro-2,4-difluoro-phenyl)-1H-pyrazol-4-yl]-1,5-naphthyridine]: the IC50 in assay [1] is 25.1 to 158 nM. Also, in assay [2], the pKi is 9.50 to 10.40.
As for `COCc1cccc(-c2n[nH]cc2-c2ccc3ncc(N4CCC(N(C)C)C4)cc3n2)c1` (racemic) [Compound 14-4, rac-(3S)-1-[6-[3-[3-(methoxymethyl)phenyl]-1H-pyrazol-4-yl]-1,5-naphthyridin-3-yl]-N,N-dimethyl-pyrrolidin-3-amine], in assay [1], the IC50 is 25.1 to 158 nM. The negative logarithm of the Ki (pKi) in assay [2] was 7.50 to 8.40.
As to `CN(C)C1CN(c2cnc3ccc(-c4c[nH]nc4-c4cc(Cl)c(F)cc4F)nc3c2)C1` [Compound 6-19, 1-[6-[3-(5-chloro-2,4-difluoro-phenyl)-1H-pyrazol-4-yl]-1,5-naphthyridin-3-yl]-N,N-dimethyl-azetidin-3-amine], the IC50 in assay [1] is 25.1 to 158 nM. Moreover, the negative logarithm of the Ki (pKi) in assay [2] was 9.50 to 10.40.
As to `Fc1cc(F)c(-c2n[nH]cc2-c2ccc3ncc(-c4cnc5n4CCN5)cc3n2)cc1Cl` [Compound 6-54, 2-[3-(5-chloro-2,4-difluoro-phenyl)-1H-pyrazol-4-yl]-7-(6,7-dihydro-5H-imidazo[1,2-a]imidazol-3-yl)-1,5-naphthyridine], in assay [1], the IC50 is 25.1 to 158 nM. Also, the pKi in assay [2] was 9.50 to 10.40.
Take `Fc1ccc(Cl)cc1-c1n[nH]cc1-c1ccc2ncc(NCC3CNC3)cc2n1` [Compound 1-28, N-(azetidin-3-ylmethyl)-6-[3-(5-chloro-2-fluoro-phenyl)-1H-pyrazol-4-yl]-1,5-naphthyridin-3-amine]: the IC50 in assay [1] is 25.1 to 158 nM. Moreover, the negative logarithm of the Ki (pKi) in assay [2] was 9.50 to 10.40.
For the compound `CN1CCN(C2CCN(c3cnc4ccc(-c5c[nH]nc5-c5cc(Cl)ccc5F)cc4c3)CC2)CC1` [Compound 16-4, 6-[3-(5-chloro-2-fluoro-phenyl)-1H-pyrazol-4-yl]-3-[4-(4-methylpiperazin-1-yl)-1-piperidyl]quinoline], in assay [1], the IC50 is 25.1 to 158 nM. The pKi in assay [2] was 8.50 to 9.40.
For `NC1CCN(c2cnc3ccc(-c4c[nH]nc4-c4cc(Cl)ccc4F)nc3c2)C1` (centres unmarked) [Compound 1-55, 1-[6-[3-(5-chloro-2-fluoro-phenyl)-1H-pyrazol-4-yl]-1,5-naphthyridin-3-yl]pyrrolidin-3-amine], the IC50 in assay [1] is at most 20 nM. The negative-log Ki (pKi) in assay [2] is at least 10.50.
For the compound `Fc1ccc(-c2[nH]cnc2-c2ccc3ncc(NCCN4CCNCC4)cc3n2)cc1F` [Compound 9-1, 6-(5-(3,4-difluorophenyl)-1H-imidazol-4-yl)-N-(2-(piperazin-1-yl)ethyl)-1,5-naphthyridin-3-amine], the IC50 in assay [1] is 200 to 1260 nM. In addition, the pKi in assay [2] was 8.50 to 9.40.
For the compound `Fc1ccc(Cl)cc1-c1[nH]cnc1-c1ccc2ncc(-c3nc4n(n3)CCNC4)cc2n1` [Compound 2-25, 2-[5-(5-chloro-2-fluoro-phenyl)-1H-imidazol-4-yl]-7-(5,6,7,8-tetrahydro-[1,2,4]triazolo[1,5-a]pyrazin-2-yl)-1,5-naphthyridine], the IC50 in assay [1] was 25.1 to 158 nM. The negative-log Ki (pKi) in assay [2] was 9.50 to 10.40.
Regarding `Fc1ccc(Cl)cc1-c1[nH]nnc1-c1ccc2ncc(-c3cn[nH]c3)cc2c1` [Compound 18-2, 6-[5-(5-chloro-2-fluoro-phenyl)-1H-triazol-4-yl]-3-(1H-pyrazol-4-yl)quinoline], in assay [1], the IC50 was at most 20 nM. Further, the pKi in assay [2] is 9.50 to 10.40.
For the compound `CN(CCN1CCNCC1)c1cnc2ccc(-c3c[nH]nc3-c3cc(Cl)c(F)cc3F)nc2c1` [Compound 6-24, 6-[3-(5-chloro-2,4-difluoro-phenyl)-1H-pyrazol-4-yl]-N-methyl-N-(2-piperazin-1-ylethyl)-1,5-naphthyridin-3-amine], the IC50 in assay [1] is 25.1 to 158 nM. For the same compound, the negative-log Ki (pKi) in assay [2] is 8.50 to 9.40.

Broadly, the pKi is the negative decadic logarithm of the Ki, by convention in mol/L.
